pEC50: −log10 of the molar value.
Tests used:
RORγ-LBD = molecular target: T1, RORγ-LBD (Homo sapiens, UniProt P51449); experiment: RORγ-Ligand Binding Domain (LBD) TR-FRET Assay; type: biochemical; conditions: for TR-FRET Assay Max Response: maximum response;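 as to TR-FRET Assay Max Response: 665/615 nm signal ratio set to 100 without ursolic acid or test compound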
T1 construct: made in house; host or cells: SF9 cells (baculovirus); used as diluted lysate
T1 sequence (P51449 269-508 limits assumed): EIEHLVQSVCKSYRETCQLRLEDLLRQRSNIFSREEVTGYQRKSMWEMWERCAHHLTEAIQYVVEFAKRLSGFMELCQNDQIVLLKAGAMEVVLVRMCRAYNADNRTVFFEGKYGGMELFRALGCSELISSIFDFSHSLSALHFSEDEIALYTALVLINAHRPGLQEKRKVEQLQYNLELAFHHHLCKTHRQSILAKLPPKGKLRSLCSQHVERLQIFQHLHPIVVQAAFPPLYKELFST
Outline: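 Lysate from SF9 cells expressing His-RORγ-LBD is diluted to about 3 nM final in 50 mM Tris pH 7.0 assay buffer. A biotin-tagged SRC1 LXXLL peptide goes in at 200 nM final, plus ursolic acid at 2 μM final. Test compounds carry 1% DMSO final; signal read by TR-FRET.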

Gal4-RORγ-LBD = molecular target: T2, Gal4-RORγ-LBD (Homo sapiens, UniProt P51449); experiment: Gal4-RORγ Luciferase Reporter Assay in HEK-293T Cells; type: cell-based; conditions: HEK-293 cells, luciferase reporter; for Gal4-RORγ Assay Max Response: maximum response
T2 construct: expressed in transfected cells
T2 sequence (P51449 269-508 limits assumed): T1 sequence (P51449 269-508 limits assumed)
Outline: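 Max Response was taken as the upper plateau of a 4-parameter logistic fit of luciferase signal, normalized to 100 for wells without ursolic acid or compound. Transiently Gal4-RORγ-LBD/Gal4-luc transfected HEK-293 cells carrying […] ursolic acid were incubated with test compounds (0.2% DMSO) overnight at 37 °C and read with One-Glo.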

Structure (SMILES)	pEC50 (RORγ-LBD; RORγ-LBD TR-FRET)	pEC50 (Gal4-RORγ-LBD; with ursolic acid)	pEC50 (RORγ-LBD; RORγ-LBD TR-FRET assay)	TR-FRET Assay Max Response (RORγ-LBD; RORγ-LBD TR-FRET assay)	pEC50 (Gal4-RORγ-LBD; in presence of ursolic acid)	Gal4-RORγ Assay Max Response (Gal4-RORγ-LBD; in presence of ursolic acid)
C/C(=C\c1ccc2c(c1)N(S(=O)(=O)c1cn(CC(F)F)nc1OCCO)C[C@H](CCC(=O)O)O2)c1c(F)cccc1Cl [Example 86AZ, (S)-3-(6-(2-(2-chloro-6-fluorophenyl)prop-1-en-1-yl)-4-((1-(2,2-difluoroethyl)-3-(2-hydroxyethoxy)-1H-pyrazol-4-yl)sulfonyl)-3,4-dihydro-2H-benzo[b][1,4]oxazin-2-yl)propanoic acid]	> 6.30	5.30 to 6.30	–	–	–	–
COC(=O)CC[C@H]1CN(S(=O)(=O)c2cccc(C(F)(F)F)c2C)c2cc(/C=C(\C)c3c(F)cccc3Cl)ccc2O1 [Example 86AN, (S,E)-methyl 3-(6-(2-(2-chloro-6-fluorophenyl)prop-1-en-1-yl)-4-((2-methyl-3-(trifluoromethyl)-phenyl)sulfonyl)-3,4-dihydro-2H-benzo[b][1,4]oxazin-2-yl)propanoate]	> 6.30	5.30 to 6.30	–	–	–	–
CCOc1ncc(C(F)(F)F)cc1S(=O)(=O)N1C[C@H](CCC(=O)OC)Oc2ccc(/C=C/c3c(Cl)cccc3C(F)(F)F)cc21 [Example 89DN, methyl (S,E)-3-(6-(2-chloro-6-(trifluoromethyl)styryl)-4-((2-ethoxy-5-(trifluoromethyl)-pyridin-3-yl)sulfonyl)-3,4-dihydro-2H-benzo[b][1,4]-oxazin-2-yl)propanoate]	> 6.30	5.30 to 6.30	–	–	–	–
C/C(=C\c1ccc2c(c1)N(S(=O)(=O)c1cccc(C(F)(F)F)c1)C[C@H](CCNS(C)(=O)=O)O2)c1c(F)cccc1Cl [Example 114, (S,E)-N-(2-(6-(2-(2-Chloro-6-fluorophenyl)prop-1-en-1-yl)-4-((3-(trifluoromethyl)phenyl)sulfonyl)-3,4-dihydro-2H-benzo[b][1,4]oxazin-2-yl)ethyl)methanesulfonamide]	–	–	> 6.30	*** (a value in the range of greater than 150 to 200)	> 6.30	** (a value in the range of greater than 90 to 150)
C/C(=C\c1ccc2c(c1)N(S(=O)(=O)c1cc(C(F)(F)F)ccc1OCCO)C[C@H](CCC(=O)N1CCC(C(=O)O)CC1)O2)c1c(F)cccc1Cl [Example 129M, (S,E)-1-(3-(6-(2-(2-chloro-6-fluorophenyl)-prop-1-en-1-yl)-4-((2-(2-hydroxyethoxy)-5-(trifluoromethyl)phenyl)sulfonyl)-3,4-dihydro-2H-benzo[b][1,4]oxazin-2-yl)propanoyl)piperidine-4-carboxylic acid]	–	–	> 6.30	*** (a value in the range of greater than 150 to 200)	5.30 to 6.30	** (a value in the range of greater than 90 to 150)
C/C(=C\c1ccc2c(c1)N(S(=O)(=O)c1cccc(C(F)(F)F)c1)C[C@H](CCNC(=O)C1CC1)O2)c1c(F)cccc1Cl [Example 113, (S,E)-N-(2-(6-(2-(2-Chloro-6-fluorophenyl)prop-1-en-1-yl)-4-((3-(trifluoromethyl)phenyl)sulfonyl)-3,4-dihydro-2H-benzo[b][1,4]oxazin-2-yl)ethyl)cyclopropanecarboxamide]	–	–	> 6.30	*** (a value in the range of greater than 150 to 200)	> 6.30	** (a value in the range of greater than 90 to 150)
COc1cc(S(=O)(=O)N2c3cc(OCc4c(F)cccc4Cl)ccc3C[C@@H](CNC(C)=O)[C@H]2C)ccc1F [Example 152, N-(((2R,3S)-7-((2-Chloro-6-fluorobenzyl)oxy)-1-((4-fluoro-3-methoxyphenyl)sulfonyl)-2-methyl-1,2,3,4-tetrahydroquinolin-3-yl)methyl)acetamide]	–	–	> 6.30	*** (a value in the range of greater than 150 to 200)	> 6.30	** (a value in the range of greater than 90 to 150)
O=C(O)C1CCN(C(=O)CC[C@H]2CN(S(=O)(=O)c3cccc(C(F)(F)F)c3)c3cc(/C=C/c4c(Cl)cccc4C(F)(F)F)ccc3O2)CC1 [Example 129A, (S,E)-1-(3-(6-(2-chloro-6-(trifluoromethyl)styryl)-4-((3-(trifluoromethyl)-phenyl)sulfonyl)-3,4-dihydro-2H-benzo[b]-[1,4]oxazin-2-yl)propanoyl)piperidine-4-carboxylic acid]	–	–	> 6.30	**** (a value greater than 200)	> 6.30	** (a value in the range of greater than 90 to 150)
CC(=O)N[C@@H]1Cc2ccc(/C=C(\C)c3c(F)cccc3Cl)cc2N(S(=O)(=O)c2cccc(C(F)(F)F)c2)C1 [Example 165, (R,E)-N-(7-(2-(2-Chloro-6-fluorophenyl)prop-1-en-1-yl)-1-((3-(trifluoromethyl)phenyl)sulfonyl)-1,2,3,4-tetrahydroquinolin-3-yl)acetamide]	–	–	> 6.30	*** (a value in the range of greater than 150 to 200)	> 6.30	* (a value in the range of 30 to 90)
Cc1cccc(C)c1/C=C/c1ccc2c(c1)N(S(=O)(=O)c1cccc(OC(F)F)c1)C[C@H](CCC(=O)O)O2 [Example 89AC, (S,E)-3-(4-((3-(difluoromethoxy)phenyl)sulfonyl)-6-(2,6-dimethylstyryl)-3,4-dihydro-2H-benzo[b][1,4]-oxazin-2-yl)propanoic acid]	> 6.30	5.30 to 6.30	–	–	–	–
CCn1cc(S(=O)(=O)N2C[C@H](CCC(=O)OC)Oc3ccc(/C=C(\C)c4c(F)cccc4Cl)cc32)c(Cl)n1 [Example 86H, (S,E)-methyl 3-(4-((3-chloro-1-ethyl-1H-pyrazol-4-yl)sulfonyl)-6-(2-(2-chloro-6-fluorophenyl)prop-1-en-1-yl)-3,4-dihydro-2H-benzo[b][1,4]oxazin-2-yl)propanoate]	> 6.30	5.30 to 6.30	–	–	–	–
COC(=O)CC[C@H]1CN(S(=O)(=O)c2cccc(OC(F)F)c2)c2cc(/C=C(\C)c3c(F)cccc3Cl)ccc2O1 [Example 86P, (S,E)-methyl 3-(6-(2-(2-chloro-6-fluorophenyl)prop-1-en-1-yl)-4-((3-(difluoromethoxy)phenyl)-sulfonyl)-3,4-dihydro-2H-benzo[b][1,4]oxazin-2-yl)propanoate]	> 6.30	5.30 to 6.30	–	–	–	–
O=C(O)CC[C@H]1CN(S(=O)(=O)c2cccc(C(F)(F)F)c2)c2cc(C=C3CCOCC3)ccc2O1 [Example 95N, (S)-3-(6-((tetrahydro-4H-pyran-4-ylidene)methyl)-4-((3-(trifluoromethyl)phenyl)sulfonyl)-3,4-dihydro-2H-benzo[b][1,4]oxazin-2-yl)propanoic acid]	> 6.30	5.30 to 6.30	–	–	–	–
CCn1cc(S(=O)(=O)N2C[C@H](CCC(=O)O)Oc3ccc(/C=C(\C)c4c(F)cccc4Cl)cc32)c(OCCO)n1 [Example 80, (S,E)-3-(6-(2-(2-Chloro-6-fluorophenyl)prop-1-en-1-yl)-4-((1-ethyl-3-(2-hydroxyethoxy)-1H-pyrazol-4-yl)sulfonyl)-3,4-dihydro-2H-benzo[b][1,4]oxazin-2-yl)propanoic acid]	> 6.30	5.30 to 6.30	–	–	–	–
COC(=O)CC[C@H]1CN(S(=O)(=O)c2cccc(C(F)(F)F)c2)c2cc(/C=C/c3ccccn3)ccc2O1 [Example 89DH, methyl (S,E)-3-(6-(2-(pyridin-2-yl)vinyl)-4-((3-(trifluoromethyl)phenyl)sulfonyl)-3,4-dihydro-2H-benzo[b][1,4]oxazin-2-yl)propanoate]	> 6.30	5.30 to 6.30	–	–	–	–
C/C(=C\c1ccc2c(c1)N(S(=O)(=O)c1cccc(C(F)(F)F)c1)C[C@H](CCC(=O)N(C)CC(=O)O)O2)c1c(F)cccc1Cl [Example 129F, (S,E)-N-(3-(6-(2-(2-chloro-6-fluorophenyl)-prop-1-en-1-yl)-4-((3-(trifluoromethyl)phenyl)sulfonyl)-3,4-dihydro-2H-benzo[b][1,4]oxazin-2-yl)propanoyl)-N-methylglycine]	–	–	> 6.30	*** (a value in the range of greater than 150 to 200)	> 6.30	*** (a value in the range of greater than 150 to 200)
C/C(=C\c1ccc2c(c1)N(S(=O)(=O)c1cccc(C(F)(F)F)c1)C[C@H]([C@@H](C)O)O2)c1c(F)cccc1Cl [Example 98, (R)-1-((R)-6-((E)-2-(2-Chloro-6-fluorophenyl)prop-1-en-1-yl)-4-((3-(trifluoromethyl)phenyl)sulfonyl)-3,4-dihydro-2H-benzo[b][1,4]oxazin-2-yl)ethan-1-ol]	> 6.30	> 6.30	–	–	–	–
O=C(O)CC[C@H]1CN(S(=O)(=O)c2cc(C(F)(F)F)cnc2OCCO)c2cc(/C=C/c3c(F)cccc3Cl)ccc2O1 [Example 89EC, (S,E)-3-(6-(2-chloro-6-fluorostyryl)-4-((2-(2-hydroxyethoxy)-5-(trifluoromethyl)-pyridin-3-yl)sulfonyl)-3,4-dihydro-2H-benzo[b][1,4]oxazin-2-yl)propanoic acid]	> 6.30	5.30 to 6.30	–	–	–	–
